Holding throughout (experiment): Kinase profiling
Common to all, as to assay type: biochemical

The target in one assay is T1, ULK2 (Homo sapiens, UniProt Q8IYT8).
T1 sequence (Q8IYT8 1-1036): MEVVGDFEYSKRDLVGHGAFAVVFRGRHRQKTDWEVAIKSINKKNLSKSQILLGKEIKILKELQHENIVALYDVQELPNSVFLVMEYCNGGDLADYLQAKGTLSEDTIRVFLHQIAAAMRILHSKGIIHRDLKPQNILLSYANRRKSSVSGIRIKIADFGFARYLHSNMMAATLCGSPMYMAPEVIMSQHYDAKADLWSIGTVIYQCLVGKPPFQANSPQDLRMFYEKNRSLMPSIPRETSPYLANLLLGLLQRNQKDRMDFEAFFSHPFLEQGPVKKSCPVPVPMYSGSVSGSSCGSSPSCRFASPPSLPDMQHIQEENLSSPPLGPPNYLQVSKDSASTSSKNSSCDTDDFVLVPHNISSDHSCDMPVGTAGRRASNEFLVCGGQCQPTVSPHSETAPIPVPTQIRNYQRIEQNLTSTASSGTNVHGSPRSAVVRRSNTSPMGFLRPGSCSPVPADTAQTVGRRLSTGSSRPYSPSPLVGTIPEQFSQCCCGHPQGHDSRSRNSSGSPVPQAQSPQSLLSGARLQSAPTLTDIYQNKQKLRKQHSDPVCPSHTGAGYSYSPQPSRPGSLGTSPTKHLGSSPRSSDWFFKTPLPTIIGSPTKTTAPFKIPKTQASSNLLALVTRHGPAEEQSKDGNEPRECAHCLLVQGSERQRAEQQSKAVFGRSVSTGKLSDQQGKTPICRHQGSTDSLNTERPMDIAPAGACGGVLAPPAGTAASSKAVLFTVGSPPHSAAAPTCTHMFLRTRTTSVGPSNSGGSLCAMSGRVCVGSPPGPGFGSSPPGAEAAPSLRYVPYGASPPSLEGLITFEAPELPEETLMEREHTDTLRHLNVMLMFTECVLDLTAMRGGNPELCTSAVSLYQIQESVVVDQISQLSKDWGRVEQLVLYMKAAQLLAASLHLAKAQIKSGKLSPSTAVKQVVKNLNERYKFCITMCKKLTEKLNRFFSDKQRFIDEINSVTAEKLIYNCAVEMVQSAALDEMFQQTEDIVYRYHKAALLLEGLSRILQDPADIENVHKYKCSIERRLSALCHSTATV

In a further assay the target is IGF-1R (Homo sapiens, UniProt P08069).
Another assay has as its target TTBK2 (Homo sapiens, UniProt Q6IQ55).
In the next assay the target is T2, LKB1 (Homo sapiens, UniProt Q15831).
T2 sequence (Q15831 1-433): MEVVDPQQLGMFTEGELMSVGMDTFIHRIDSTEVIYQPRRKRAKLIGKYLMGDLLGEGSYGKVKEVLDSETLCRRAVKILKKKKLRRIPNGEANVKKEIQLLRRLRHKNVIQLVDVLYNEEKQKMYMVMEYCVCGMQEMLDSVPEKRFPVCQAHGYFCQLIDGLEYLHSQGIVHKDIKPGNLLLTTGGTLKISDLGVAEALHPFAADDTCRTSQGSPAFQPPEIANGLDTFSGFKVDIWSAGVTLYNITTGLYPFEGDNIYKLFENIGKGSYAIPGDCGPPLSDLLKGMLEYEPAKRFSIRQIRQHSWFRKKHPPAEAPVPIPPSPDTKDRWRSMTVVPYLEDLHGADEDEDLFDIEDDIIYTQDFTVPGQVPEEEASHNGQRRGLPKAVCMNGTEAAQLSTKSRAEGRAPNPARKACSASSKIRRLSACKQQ
T2 sequence (Q7RTN6 1-431 partner): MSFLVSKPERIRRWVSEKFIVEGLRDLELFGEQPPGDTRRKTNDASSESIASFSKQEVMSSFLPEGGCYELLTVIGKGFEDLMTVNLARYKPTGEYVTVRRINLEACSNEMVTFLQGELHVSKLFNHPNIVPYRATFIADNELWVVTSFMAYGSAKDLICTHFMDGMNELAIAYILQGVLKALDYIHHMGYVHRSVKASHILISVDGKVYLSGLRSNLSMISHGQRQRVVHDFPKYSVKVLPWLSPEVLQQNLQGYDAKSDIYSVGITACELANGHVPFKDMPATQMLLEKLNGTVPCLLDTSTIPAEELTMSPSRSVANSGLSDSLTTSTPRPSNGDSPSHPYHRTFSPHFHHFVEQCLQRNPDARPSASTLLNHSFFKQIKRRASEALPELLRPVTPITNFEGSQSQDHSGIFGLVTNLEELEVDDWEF
T2 sequence (Q9Y376 1-341 partner): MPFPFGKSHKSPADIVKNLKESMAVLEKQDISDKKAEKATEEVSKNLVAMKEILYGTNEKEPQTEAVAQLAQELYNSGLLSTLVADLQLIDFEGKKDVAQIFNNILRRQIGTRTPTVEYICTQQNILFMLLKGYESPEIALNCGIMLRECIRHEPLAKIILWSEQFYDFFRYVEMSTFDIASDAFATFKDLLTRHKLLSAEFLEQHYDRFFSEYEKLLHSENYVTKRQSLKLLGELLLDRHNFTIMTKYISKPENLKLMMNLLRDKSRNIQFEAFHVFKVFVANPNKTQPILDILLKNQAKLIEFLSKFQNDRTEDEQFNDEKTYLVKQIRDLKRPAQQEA

Usually remaining activity stands for the signal under treatment as a percentage of the control signal.

Sequence of IGF-1R (P08069 31-1367): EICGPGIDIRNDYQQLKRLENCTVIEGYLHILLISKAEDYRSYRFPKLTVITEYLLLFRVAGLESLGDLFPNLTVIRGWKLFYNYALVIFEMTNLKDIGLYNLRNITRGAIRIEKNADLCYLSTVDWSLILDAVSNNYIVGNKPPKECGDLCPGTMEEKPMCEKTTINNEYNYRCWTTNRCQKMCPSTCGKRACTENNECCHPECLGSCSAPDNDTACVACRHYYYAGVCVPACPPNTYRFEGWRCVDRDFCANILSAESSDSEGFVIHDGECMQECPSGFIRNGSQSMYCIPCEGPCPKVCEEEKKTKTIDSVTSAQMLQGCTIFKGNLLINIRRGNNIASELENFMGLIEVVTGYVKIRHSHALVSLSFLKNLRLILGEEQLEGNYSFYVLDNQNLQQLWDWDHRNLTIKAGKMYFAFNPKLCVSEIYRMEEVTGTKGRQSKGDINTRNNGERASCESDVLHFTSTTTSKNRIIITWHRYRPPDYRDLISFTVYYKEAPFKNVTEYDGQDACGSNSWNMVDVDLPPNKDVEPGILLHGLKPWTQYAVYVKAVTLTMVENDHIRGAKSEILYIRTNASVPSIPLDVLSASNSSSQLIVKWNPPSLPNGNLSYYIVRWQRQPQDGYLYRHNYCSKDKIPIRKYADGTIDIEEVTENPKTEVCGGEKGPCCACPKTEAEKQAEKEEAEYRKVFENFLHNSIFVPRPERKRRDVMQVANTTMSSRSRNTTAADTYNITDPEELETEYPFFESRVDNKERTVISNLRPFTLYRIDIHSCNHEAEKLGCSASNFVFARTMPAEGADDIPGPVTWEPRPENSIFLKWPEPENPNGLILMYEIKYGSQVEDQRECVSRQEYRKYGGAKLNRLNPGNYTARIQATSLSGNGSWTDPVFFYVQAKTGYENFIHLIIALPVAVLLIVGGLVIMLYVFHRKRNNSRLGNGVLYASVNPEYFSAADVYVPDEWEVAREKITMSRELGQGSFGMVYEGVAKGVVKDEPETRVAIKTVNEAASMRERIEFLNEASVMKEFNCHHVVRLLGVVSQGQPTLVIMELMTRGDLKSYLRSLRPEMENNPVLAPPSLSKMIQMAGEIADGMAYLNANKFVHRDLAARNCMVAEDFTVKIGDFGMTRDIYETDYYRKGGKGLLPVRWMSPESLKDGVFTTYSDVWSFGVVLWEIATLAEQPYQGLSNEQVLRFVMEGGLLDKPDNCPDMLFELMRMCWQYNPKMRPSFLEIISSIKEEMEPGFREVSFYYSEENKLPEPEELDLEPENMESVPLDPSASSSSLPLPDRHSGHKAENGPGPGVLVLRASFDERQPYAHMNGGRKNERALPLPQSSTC
Sequence of TTBK2 (Q6IQ55 whole entry): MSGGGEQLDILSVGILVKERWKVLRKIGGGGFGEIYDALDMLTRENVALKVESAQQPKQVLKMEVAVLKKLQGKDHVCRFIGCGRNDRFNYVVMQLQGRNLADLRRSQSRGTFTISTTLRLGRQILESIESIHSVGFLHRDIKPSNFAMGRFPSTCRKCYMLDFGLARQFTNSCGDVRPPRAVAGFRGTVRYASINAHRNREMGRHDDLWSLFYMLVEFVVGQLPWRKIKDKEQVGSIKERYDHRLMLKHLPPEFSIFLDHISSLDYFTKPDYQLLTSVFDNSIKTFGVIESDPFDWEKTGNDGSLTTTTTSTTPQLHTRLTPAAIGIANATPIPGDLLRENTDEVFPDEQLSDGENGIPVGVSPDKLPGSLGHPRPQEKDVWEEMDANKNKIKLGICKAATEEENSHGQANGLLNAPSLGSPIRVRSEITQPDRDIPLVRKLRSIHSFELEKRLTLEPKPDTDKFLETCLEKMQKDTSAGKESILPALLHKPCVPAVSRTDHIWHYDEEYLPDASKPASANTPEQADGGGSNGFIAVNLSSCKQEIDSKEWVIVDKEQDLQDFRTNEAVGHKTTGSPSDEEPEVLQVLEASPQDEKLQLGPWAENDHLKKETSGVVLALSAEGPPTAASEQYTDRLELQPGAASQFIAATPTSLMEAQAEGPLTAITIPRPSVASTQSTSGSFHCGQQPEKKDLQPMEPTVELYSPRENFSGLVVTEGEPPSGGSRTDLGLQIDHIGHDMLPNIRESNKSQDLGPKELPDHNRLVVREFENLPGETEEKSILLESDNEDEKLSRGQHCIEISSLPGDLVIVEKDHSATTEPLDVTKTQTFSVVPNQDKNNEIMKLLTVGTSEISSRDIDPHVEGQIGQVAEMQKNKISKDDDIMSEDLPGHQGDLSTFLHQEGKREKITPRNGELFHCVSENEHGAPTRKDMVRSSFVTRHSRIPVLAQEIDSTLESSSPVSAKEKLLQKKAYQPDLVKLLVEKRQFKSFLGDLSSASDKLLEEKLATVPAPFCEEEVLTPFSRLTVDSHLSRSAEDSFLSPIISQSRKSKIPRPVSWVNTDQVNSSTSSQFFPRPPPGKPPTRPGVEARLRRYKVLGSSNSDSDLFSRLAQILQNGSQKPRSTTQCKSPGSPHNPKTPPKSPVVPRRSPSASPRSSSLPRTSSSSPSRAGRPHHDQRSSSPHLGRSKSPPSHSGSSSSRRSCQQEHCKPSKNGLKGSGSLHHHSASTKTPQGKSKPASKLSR

For the molecule `COc1cc(Nc2c(C#N)cnc3cc(OCCCN4CCN(C)CC4)c(OC)cc23)c(Cl)cc1Cl` [Bosutinib, bosutinib], the remaining activity at 0.1 µM on ULK2 was 78 ± 10%; on IGF-1R, 89 ± 8%; at TTBK2, 87 ± 6%; on LKB1, 84 ± 13%. In addition, the remaining activity at 1 µM on ULK2 came out at 37 ± 1%; at IGF-1R, 79 ± 4%; at TTBK2 it was 92 ± 6%; at LKB1, 104 ± 15%.

As for `Cc1nc(Nc2ncc(C(=O)Nc3c(C)cccc3Cl)s2)cc(N2CCN(CCO)CC2)n1` [Dasatinib], the remaining activity at 0.1 µM on ULK2 turned out to be 101 ± 3%; on IGF-1R, 107 ± 6%; at TTBK2, 110 ± 5%; at LKB1 it was 96 ± 18%. The remaining activity at 1 µM turned out to be 91 ± 3% on ULK2, 98 ± 7% on IGF-1R, 117 ± 7% at TTBK2 and 100 ± 14% on LKB1.

Source of the values: publication PMC4286194 (Biochemical Journal, 2015).
